Results published in patent US11591341B2 (ALIGOS THERAPEUTICS, INC., priority 2019, dated 2023).

Tested on: HBV
Experiment: HBV-DNA Antiviral Assay Using HepG2.117 Cells (intracellular HBV DNA by qPCR)
Type: cell-based, hepatitis B virus (genotype D)
Conditions: Hepatitis B virus, HepG2.117
How it was run: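 HepG2.117 cells (genotype D HBV, Tet-off) were induced by doxycycline withdrawal and treated for 3 days with 9 concentrations in 4-fold dilution, 2% DMSO final. Intracellular HBV DNA was measured by qPCR against a standard curve, with ATPlite viability read in parallel. EC50, EC90 and CC50 came from fits against the DMSO control.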

Structure (SMILES) | EC50 [nM]
COc1ccc(CNC(=O)c2c3n(c(=O)n2-c2ccc(C#N)cc2)CCN(C(=O)c2ccc(Br)c(Cl)c2)C3)c(C)c1 [Example 163, 7-(4-bromo-3-chloro-benzoyl)-2-(4-cyanophenyl)-N-[(4-methoxy-2-methyl-phenyl)methyl]-3-oxo-6,8-dihydro-5H-imidazo[1,5-a]pyrazine-1-carboxamide] | 500 to 5000
COc1ccc(CNC(=O)c2c3n(c(=O)n2-c2ccc(C#N)cc2)CCN(C(=O)c2ccc(Br)c(Cl)c2)C3)c(F)c1 [Example 164, 7-(4-bromo-3-chloro-benzoyl)-2-(4-cyanophenyl)-N-[(2-fluoro-4-methoxy-phenyl)methyl]-3-oxo-6,8-dihydro-5H-imidazo[1,5-a]pyrazine-1-carboxamide] | 500 to 5000
COC(=O)c1cccc(CNC(=O)c2c3n(c(=O)n2-c2ccc(OC)cc2)CCN(C(=O)c2ccc(Br)c(Cl)c2)C3)c1 [Example 165, methyl 3-[[[7-(4-bromo-3-chloro-benzoyl)-2-(4-methoxyphenyl)-3-oxo-6,8-dihydro-5H-imidazo[1,5-a]pyrazine-1-carbonyl]amino]methyl]benzoate] | 100 to 500
COc1ccc(-n2c(C(=O)NCc3cccc4cccnc34)c3n(c2=O)CCN(C(=O)c2ccc(Br)c(Cl)c2)C3)cc1 [Example 166, 7-(4-bromo-3-chloro-benzoyl)-2-(4-methoxyphenyl)-3-oxo-N-(8-quinolylmethyl)-6,8-dihydro-5H-imidazo[1,5-a]pyrazine-1-carboxamide] | 100 to 500
COc1ccc(-n2c(C(=O)NCc3ccccc3-n3cccn3)c3n(c2=O)CCN(C(=O)c2ccc(Br)c(Cl)c2)C3)cc1 [Example 167, 7-(4-bromo-3-chloro-benzoyl)-2-(4-methoxyphenyl)-3-oxo-N-[(2-pyrazol-1-ylphenyl)methyl]-6,8-dihydro-5H-imidazo[1,5-a]pyrazine-1-carboxamide] | < 100
COc1ccc(-n2c(C(=O)NCc3cnccn3)c3n(c2=O)CCN(C(=O)c2ccc(Br)c(Cl)c2)C3)cc1 [Example 171, 7-(4-bromo-3-chloro-benzoyl)-2-(4-methoxyphenyl)-3-oxo-N-(pyrazin-2-ylmethyl)-6,8-dihydro-5H-imidazo[1,5-a]pyrazine-1-carboxamide] | > 5000
COc1ccc(-n2c(C(=O)NCc3ccc(C#N)cc3)c3n(c2=O)CCN(C(=O)c2ccc(Br)c(Cl)c2)C3)cc1 [Example 180, 7-(4-bromo-3-chloro-benzoyl)-N-[(4-cyanophenyl)methyl]-2-(4-methoxyphenyl)-3-oxo-6,8-dihydro-5H-imidazo[1,5-a]pyrazine-1-carboxamide] | 500 to 5000
COc1ccc(-n2c(C(=O)NCc3ccccc3F)c3n(c2=O)CCN(C(=O)c2ccc(Br)c(Cl)c2)C3)cc1 [Example 181, 7-(4-bromo-3-chloro-benzoyl)-N-[(2-fluorophenyl)methyl]-2-(4-methoxyphenyl)-3-oxo-6,8-dihydro-5H-imidazo[1,5-a]pyrazine-1-carboxamide] | 100 to 500
COc1ccc(-n2c(C(=O)NCc3ccc4c(c3)OCO4)c3n(c2=O)CCN(C(=O)c2ccc(Br)c(Cl)c2)C3)cc1 [Example 182, N-(1,3-benzodioxol-5-ylmethyl)-7-(4-bromo-3-chloro-benzoyl)-2-(4-methoxyphenyl)-3-oxo-6,8-dihydro-5H-imidazo[1,5-a]pyrazine-1-carboxamide] | 100 to 500
COc1ccc(-n2c(C(=O)NCc3ccc(CC(N)=O)cc3)c3n(c2=O)CCN(C(=O)c2ccc(Br)c(Cl)c2)C3)cc1 [Example 183, N-[[4-(2-amino-2-oxo-ethyl)phenyl]methyl]-7-(4-bromo-3-chloro-benzoyl)-2-(4-methoxyphenyl)-3-oxo-6,8-dihydro-5H-imidazo[1,5-a]pyrazine-1-carboxamide] | 500 to 5000
CC(C)Oc1ccc(-n2c(C(=O)NCc3ccccc3)c3n(c2=O)CCN(C(=O)c2ccc(Br)c(Cl)c2)C3)cc1 [Example 184, N-benzyl-7-(4-bromo-3-chloro-benzoyl)-2-(4-isopropoxyphenyl)-3-oxo-6,8-dihydro-5H-imidazo[1,5-a]pyrazine-1-carboxamide] | 100 to 500
COc1ccc(CNC(=O)c2c3n(c(=O)n2-c2ccc(OC(C)C)cc2)CCN(C(=O)c2ccc(Br)c(Cl)c2)C3)cc1 [Example 185, 7-(4-bromo-3-chloro-benzoyl)-2-(4-isopropoxyphenyl)-N-[(4-methoxyphenyl)methyl]-3-oxo-6,8-dihydro-5H-imidazo[1,5-a]pyrazine-1-carboxamide] | 100 to 500
CCS(=O)(=O)c1cccc(CNC(=O)c2c3n(c(=O)n2-c2ccc(OC(C)C)cc2)CCN(C(=O)c2ccc(Br)c(Cl)c2)C3)c1 [Example 186, 7-(4-bromo-3-chloro-benzoyl)-N-[(3-ethylsulfonylphenyl)methyl]-2-(4-isopropoxyphenyl)-3-oxo-6,8-dihydro-5H-imidazo[1,5-a]pyrazine-1-carboxamide] | 500 to 5000
COc1ccc(-n2c(C(=O)NCc3ccccn3)c3n(c2=O)CCN(C(=O)c2ccc(Br)c(Cl)c2)C3)cc1 [Example 191, 7-(4-bromo-3-chloro-benzoyl)-2-(4-methoxyphenyl)-3-oxo-N-(2-pyridylmethyl)-6,8-dihydro-5H-imidazo[1,5-a]pyrazine-1-carboxamide] | 500 to 5000
COc1ccc(-n2c(C(=O)NCc3ccc(=O)[nH]c3)c3n(c2=O)CCN(C(=O)c2ccc(Br)c(Cl)c2)C3)cc1 [Example 192, 7-(4-bromo-3-chloro-benzoyl)-2-(4-methoxyphenyl)-3-oxo-N-[(6-oxo-1H-pyridin-3-yl)methyl]-6,8-dihydro-5H-imidazo[1,5-a]pyrazine-1-carboxamide] | > 5000
O=C(NCc1ccccc1)c1c2n(c(=O)n1-c1ccccc1)CCN(C(=O)c1ccc(Br)c(Cl)c1)C2 [Example 195, N-benzyl-7-(4-bromo-3-chloro-benzoyl)-3-oxo-2-phenyl-6,8-dihydro-5H-imidazo[1,5-a]pyrazine-1-carboxamide] | 500 to 5000
CCOC(=O)Cc1ccc(CNC(=O)c2c3n(c(=O)n2-c2ccc(OC)cc2)CCN(C(=O)c2ccc(Br)c(Cl)c2)C3)cc1 [Example 196, ethyl 2-[4-[[[7-(4-bromo-3-chloro-benzoyl)-2-(4-methoxyphenyl)-3-oxo-6,8-dihydro-5H-imidazo[1,5-a]pyrazine-1-carbonyl]amino]methyl]phenyl]acetate] | > 5000
CC(C)Oc1ccc(-n2c(-c3ncc(-c4ccccc4)o3)c3n(c2=O)CCN(C(=O)c2ccc(Br)c(Cl)c2)C3)cc1 [Example 197, 7-(4-bromo-3-chloro-benzoyl)-2-(4-isopropoxyphenyl)-1-(5-phenyloxazol-2-yl)-6,8-dihydro-5H-imidazo[1,5-a]pyrazin-3-one] | > 5000
COc1ccc(-n2c(C(=O)NCc3ccc(OCC(=O)O)cc3)c3n(c2=O)CCN(C(=O)c2ccc(Br)c(Cl)c2)C3)cc1 [Example 204, 2-[4-[[[7-(4-bromo-3-chloro-benzoyl)-2-(4-methoxyphenyl)-3-oxo-6,8-dihydro-5H-imidazo[1,5-a]pyrazine-1-carbonyl]amino]methyl]phenoxy]acetic acid] | > 5000
COc1ccc(-n2c(C(=O)NCc3ccc(OCC(N)=O)cc3)c3n(c2=O)CCN(C(=O)c2ccc(Br)c(Cl)c2)C3)cc1 [Example 205, N-[[4-(2-amino-2-oxo-ethoxy)phenyl]methyl]-7-(4-bromo-3-chloro-benzoyl)-2-(4-methoxyphenyl)-3-oxo-6,8-dihydro-5H-imidazo[1,5-a]pyrazine-1-carboxamide] | 500 to 5000
COc1ccc(-n2c(C(=O)NCc3ccc(OC)cc3C3CC3)c3n(c2=O)CCN(C(=O)c2ccc(Br)c(Cl)c2)C3)cc1 [Example 210, 7-(4-bromo-3-chloro-benozyl)-N-[(2-cyclopropyl-4-methoxy-phenyl)methyl]-2-(4-methoxyphenyl)-3-oxo-6,8-dihydro-5H-imidazo[1,5-a]pyrazine-1-carboxamide] | 100 to 500
COc1cc(CNC(=O)c2c3n(c(=O)n2-c2ccc(OC(C)C)cc2)CCN(C(=O)c2ccc(Br)c(Cl)c2)C3)ccc1C#N [Example 211, 7-(4-bromo-3-chloro-benzoyl)-N-[(4-cyano-3-methoxy-phenyl)methyl]-2-(4-isopropxoyphenyl)-3-oxo-6,8-dihydro-5H-imidazo[1,5-a]pyrazine-1-carboxamide] | 500 to 5000
CC(C)Oc1ccc(-n2c(C(=O)NCc3ccc(C#N)cc3F)c3n(c2=O)CCN(C(=O)c2ccc(Br)c(Cl)c2)C3)cc1 [Example 212, 7-(4-bromo-3-chloro-benzoyl)-N-[(4-cyano-2-fluoro-phenyl)methyl]-2-(4-isopropoxyphenyl)-3-oxo-6,8-dihydro-5H-imidazo[1,5-a]pyrazine-1-carboxamide] | 100 to 500
COc1ccc(-n2c(C(=O)NCc3ccc(CC(=O)O)cc3)c3n(c2=O)CCN(C(=O)c2ccc(Br)c(Cl)c2)C3)cc1 [Example 215, 2-[4-[[[7-(4-bromo-3-chloro-benzoyl)-2-(4-methoxyphenyl)-3-oxo-6,8-dihydro-5H-imidazo[1,5-a]pyrazine-1-carbonyl]amino]methyl]phenyl]acetic acid] | > 5000
CC(C)Oc1ccc(-n2c(C(=O)NCc3ccccc3)c3n(c2=O)CCN(C(=O)/C=C/c2ccccc2Cl)C3)cc1 [Example 216, N-benzyl-7-[(E)-3-(2-chloropehnyl)prop-2-enoyl]-2-(4-isopropoxyphenyl)-3-oxo-6,8-dihydro-5H-imidazo[1,5-a]pyrazine-1-carboxamide] | > 5000
CC(C)Oc1ccc(-n2c(C(=O)NCc3ccccc3)c3n(c2=O)CCN(C(=O)c2ccc(Br)c(C#N)c2)C3)cc1 [Example 217, N-benzyl-7-(4-bromo-3-cyano-benzoyl)-2-(4-isopropoxyphenyl)-3-oxo-6,8-dihydro-5H-imidazo[1,5-a]pyrazine-1-carboxamide] | 500 to 5000
COc1ccc(CNC(=O)c2c3n(c(=O)n2-c2ccc(OC(C)C)cc2)CCN(C(=O)c2ccc(Br)c(Cl)c2)C3)c(F)c1 [Example 218, 7-(4-bromo-3-chloro-benzoyl)-N-[(2-fluoro-4-methoxy-phenyl)methyl]-2-(4-isopropoxyphenyl)-3-oxo-6,8-dihydro-5H-imdiazo[1,5-a]pyrazine-1-carboxamide] | < 100
